In article PMC5345657, “Targeting myeloid differentiation protein 2 by the new chalcone L2H21 protects LPS‐induced acute lung injury” (Journal of Cellular and Molecular Medicine, 2016) one finds Kd data, which are given here for one compound.

The term Kd denotes a measure of binding affinity in units of concentration. A high value points to weaker binding.

This assay has as its target T1, MD-2 (myeloid differentiation protein 2, rhMD-2) (Homo sapiens, UniProt Q9Y6Y9).
T1 construct: gene LY96; recombinant human MD-2 (rhMD-2, R&D Systems)
T1 sequence (Q9Y6Y9 19-160): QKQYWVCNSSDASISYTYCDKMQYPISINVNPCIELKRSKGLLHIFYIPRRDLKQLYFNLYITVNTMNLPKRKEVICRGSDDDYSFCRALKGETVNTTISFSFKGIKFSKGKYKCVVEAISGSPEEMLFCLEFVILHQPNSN
The assay can be described thus: SPR (ProteOn XPR36); supported by bis-ANS displacement and biotin-LPS competition ELISA; R90A and Y102A abolish binding. For orientation: In an ELISA, binding on a coated surface is turned into a signal by an enzyme label.

The compound `COc1cccc(/C=C/C(=O)c2ccc(O)c(O)c2)c1OC` [L2H21, (E)‐2,3‐Dimethoxy‐3′,4′‐dihydroxychalcone] yielded a Kd of 19.1 µM.
